Measurements from patent US8178577B2, “Tricyclic derivatives as potent and selective histone deacetylase inhibitors” (Shenzhen Chipscreen Biosciences Ltd., priority 2008, dated 2012).

Legend:
HDAC3 = molecular target: T1, HDAC3 (Homo sapiens, UniProt O15379); experiment: gdf11 reporter gene assay in HeLa cells; type: cell-based; conditions: for activation at 10 µM: HeLa, 24 h, read-out: % of SAHA Response for HDAC3 at 10 μM (gdf11 reporter gene)
T1 construct: endogenous in cells; host or cells: HeLa
T1 sequence (O15379 whole entry): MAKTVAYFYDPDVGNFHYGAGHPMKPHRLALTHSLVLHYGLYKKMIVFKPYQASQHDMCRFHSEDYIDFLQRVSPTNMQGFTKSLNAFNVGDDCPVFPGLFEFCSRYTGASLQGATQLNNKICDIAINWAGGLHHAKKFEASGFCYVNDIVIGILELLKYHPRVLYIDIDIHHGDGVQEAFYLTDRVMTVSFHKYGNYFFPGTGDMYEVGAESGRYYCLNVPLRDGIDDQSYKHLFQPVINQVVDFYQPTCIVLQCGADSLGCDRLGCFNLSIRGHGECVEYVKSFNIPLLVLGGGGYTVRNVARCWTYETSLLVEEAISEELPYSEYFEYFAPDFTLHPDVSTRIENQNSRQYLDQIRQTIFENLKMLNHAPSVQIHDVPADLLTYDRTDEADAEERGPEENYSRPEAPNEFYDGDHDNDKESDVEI
T1 sequence (Q9Y618 whole entry partner): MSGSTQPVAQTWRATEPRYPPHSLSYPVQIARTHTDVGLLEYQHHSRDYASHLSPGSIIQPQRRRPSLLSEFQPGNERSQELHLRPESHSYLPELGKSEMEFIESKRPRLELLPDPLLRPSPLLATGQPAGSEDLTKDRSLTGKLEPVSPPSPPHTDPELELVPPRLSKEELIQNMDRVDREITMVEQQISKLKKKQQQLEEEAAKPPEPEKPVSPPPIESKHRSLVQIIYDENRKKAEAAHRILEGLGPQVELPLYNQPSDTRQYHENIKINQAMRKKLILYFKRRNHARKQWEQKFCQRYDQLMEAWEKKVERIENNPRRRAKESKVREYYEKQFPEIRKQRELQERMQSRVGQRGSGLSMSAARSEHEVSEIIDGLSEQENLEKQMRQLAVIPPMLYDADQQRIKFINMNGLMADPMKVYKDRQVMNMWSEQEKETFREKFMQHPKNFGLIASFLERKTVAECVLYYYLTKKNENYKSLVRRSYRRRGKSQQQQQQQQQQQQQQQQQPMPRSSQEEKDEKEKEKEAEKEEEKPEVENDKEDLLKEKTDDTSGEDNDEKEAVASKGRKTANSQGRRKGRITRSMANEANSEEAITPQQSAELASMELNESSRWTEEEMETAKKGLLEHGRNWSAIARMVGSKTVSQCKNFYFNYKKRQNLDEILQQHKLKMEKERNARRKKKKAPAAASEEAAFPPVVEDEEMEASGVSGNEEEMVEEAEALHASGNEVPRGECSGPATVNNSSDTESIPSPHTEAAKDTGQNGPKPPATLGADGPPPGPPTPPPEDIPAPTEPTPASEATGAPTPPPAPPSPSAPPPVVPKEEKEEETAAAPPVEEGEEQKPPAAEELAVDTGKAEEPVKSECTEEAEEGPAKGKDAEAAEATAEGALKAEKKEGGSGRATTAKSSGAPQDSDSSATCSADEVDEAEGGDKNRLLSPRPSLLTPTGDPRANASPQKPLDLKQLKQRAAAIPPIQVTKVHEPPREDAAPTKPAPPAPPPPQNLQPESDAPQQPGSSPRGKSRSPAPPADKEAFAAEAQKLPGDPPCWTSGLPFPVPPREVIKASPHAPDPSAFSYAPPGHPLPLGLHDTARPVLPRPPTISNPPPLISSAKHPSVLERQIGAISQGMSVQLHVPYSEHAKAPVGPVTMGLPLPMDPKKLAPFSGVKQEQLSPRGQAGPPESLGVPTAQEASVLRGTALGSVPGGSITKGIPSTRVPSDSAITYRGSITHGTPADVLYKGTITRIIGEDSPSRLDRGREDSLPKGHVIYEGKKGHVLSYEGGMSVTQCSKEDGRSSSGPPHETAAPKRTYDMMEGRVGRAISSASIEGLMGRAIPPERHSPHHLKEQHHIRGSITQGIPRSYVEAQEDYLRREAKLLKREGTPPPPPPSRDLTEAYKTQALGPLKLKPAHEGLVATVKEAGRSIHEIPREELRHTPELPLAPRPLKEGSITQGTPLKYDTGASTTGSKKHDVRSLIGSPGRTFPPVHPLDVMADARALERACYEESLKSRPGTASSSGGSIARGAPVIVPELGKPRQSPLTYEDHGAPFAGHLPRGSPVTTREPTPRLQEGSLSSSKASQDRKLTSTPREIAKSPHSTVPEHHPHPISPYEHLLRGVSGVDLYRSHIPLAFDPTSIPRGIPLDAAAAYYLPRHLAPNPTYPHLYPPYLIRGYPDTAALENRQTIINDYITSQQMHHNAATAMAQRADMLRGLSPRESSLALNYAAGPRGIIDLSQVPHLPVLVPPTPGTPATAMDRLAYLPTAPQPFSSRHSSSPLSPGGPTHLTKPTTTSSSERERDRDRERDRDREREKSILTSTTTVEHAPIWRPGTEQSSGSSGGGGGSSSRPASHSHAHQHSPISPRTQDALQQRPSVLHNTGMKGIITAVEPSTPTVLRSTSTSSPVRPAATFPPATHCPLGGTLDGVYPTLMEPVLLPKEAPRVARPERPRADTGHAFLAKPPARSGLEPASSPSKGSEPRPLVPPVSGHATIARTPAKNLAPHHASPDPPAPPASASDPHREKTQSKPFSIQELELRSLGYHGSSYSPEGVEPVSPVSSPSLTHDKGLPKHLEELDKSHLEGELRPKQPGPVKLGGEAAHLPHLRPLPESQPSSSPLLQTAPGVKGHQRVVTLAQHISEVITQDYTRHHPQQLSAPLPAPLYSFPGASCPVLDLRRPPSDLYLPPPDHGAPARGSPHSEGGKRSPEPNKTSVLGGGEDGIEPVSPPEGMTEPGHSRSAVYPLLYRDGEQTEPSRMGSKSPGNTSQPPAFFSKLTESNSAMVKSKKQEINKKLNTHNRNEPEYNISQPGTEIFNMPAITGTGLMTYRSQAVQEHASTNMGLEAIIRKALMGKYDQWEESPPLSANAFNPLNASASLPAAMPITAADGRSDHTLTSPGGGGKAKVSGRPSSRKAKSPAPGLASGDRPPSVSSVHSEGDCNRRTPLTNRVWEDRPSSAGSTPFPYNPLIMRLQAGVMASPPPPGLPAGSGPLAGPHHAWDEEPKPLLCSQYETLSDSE
Procedure: (§1) HDAC subtype selectivity inhibition assay of tested compounds was carried out by several reporter gene assays experiments. Briefly, HeLa cells were seeded in 96-well plates the day before transfection to give a confluence of 50-80%. Cells were transfected with one of reporter gene plasmids containing a promoter sequences or response elements upstream of a luciferase gene construct using FuGene6 transfection reagent according to the manufacturer's instructions (Roche). The promoter or response elements including p21-promoter, gdf11-promoter, serum response element (SRE), MEF-binding element were fused upstream to the luciferase gene reporter construct. For normalizing the transfection efficiency, a GFP expression plasmid was cotransfected. Cells were allowed to express protein for 24 hours followed by addition of individual compounds or the vehicle (DMSO). 24 hours later the cells were harvested, and the luciferase assays were performed using the luciferase assay kit according to the manufacturer's instructions (Promega). To normalize the data from the luciferase assays, β-galactosidase activity from transfected cells was measured using a kit (Promega) as instructed by the manufacturer.

HDAC Class I = experiment: P21 reporter gene assay in HeLa cells; type: cell-based; conditions: relative to SAHA, 24 hours
Procedure: as §1

HDAC7 = molecular target: T2, HDAC7 (Homo sapiens, UniProt Q8WUI4); experiment: Nur77 reporter gene assay in HeLa cells; type: cell-based; conditions: for activation at 10 µM: HeLa, 24 h, read-out: % of SAHA Response for HDAC7 at 10 μM (Nur77 reporter gene)
T2 construct: endogenous in cells; host or cells: HeLa
T2 sequence (Q8WUI4 1-952): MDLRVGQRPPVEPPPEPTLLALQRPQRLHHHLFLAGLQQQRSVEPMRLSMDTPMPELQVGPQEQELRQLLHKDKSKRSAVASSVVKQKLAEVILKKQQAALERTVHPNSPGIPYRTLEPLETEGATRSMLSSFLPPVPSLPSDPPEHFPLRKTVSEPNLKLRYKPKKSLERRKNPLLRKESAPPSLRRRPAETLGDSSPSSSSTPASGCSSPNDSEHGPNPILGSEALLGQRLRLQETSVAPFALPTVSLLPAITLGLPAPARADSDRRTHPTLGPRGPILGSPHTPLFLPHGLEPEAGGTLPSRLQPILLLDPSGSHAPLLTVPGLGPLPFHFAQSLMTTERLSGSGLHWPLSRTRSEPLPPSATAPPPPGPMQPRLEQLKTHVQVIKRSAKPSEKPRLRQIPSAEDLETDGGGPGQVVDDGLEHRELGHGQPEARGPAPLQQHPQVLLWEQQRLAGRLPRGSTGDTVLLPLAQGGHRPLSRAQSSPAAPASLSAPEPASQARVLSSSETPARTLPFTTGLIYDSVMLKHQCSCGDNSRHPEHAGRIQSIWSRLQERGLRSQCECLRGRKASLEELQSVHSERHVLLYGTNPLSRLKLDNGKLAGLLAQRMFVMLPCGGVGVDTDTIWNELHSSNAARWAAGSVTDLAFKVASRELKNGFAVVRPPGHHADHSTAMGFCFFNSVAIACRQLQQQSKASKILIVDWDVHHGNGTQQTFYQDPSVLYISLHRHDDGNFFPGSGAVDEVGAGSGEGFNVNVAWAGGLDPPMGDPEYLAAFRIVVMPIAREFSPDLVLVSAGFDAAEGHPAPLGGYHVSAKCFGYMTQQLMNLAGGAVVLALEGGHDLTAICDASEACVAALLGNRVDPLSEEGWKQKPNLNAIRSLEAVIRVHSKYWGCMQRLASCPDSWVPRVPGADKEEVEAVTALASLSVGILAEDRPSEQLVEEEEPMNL
Procedure: as §1

HDAC4/5 = experiment: MEF2 reporter gene assay in HeLa cells; type: cell-based; conditions: relative to SAHA, 24 hours
Procedure: as §1

total HDAC enzyme = experiment: In vitro inhibition of total HDAC enzyme activity (BIOMOL HDAC Fluorimetric Assay/Drug Discovery Kit, HeLa extract); type: biochemical
Procedure: Measurement of In Vitro Inhibition of Total HDAC Enzyme Activity:
The in vitro inhibition of total HDAC enzyme was determined by HDAC Fluorimetric Assay/Drug Discovery Kit (BIOMOL) according to manufacture's instruction. • 1. Add Assay buffer, diluted trichostatin A or test inhibitor to appropriate wells of the microtiter plate. Following table lists examples of various assay types and the additions required for each test.
• 2. Add diluted HeLa extract or other HDAC sample to all wells except those that are to be “No Enzyme Controls” (Blank). • 3. Allow diluted Fluor de LYS™ Substrate and the samples in the microtiter plate to equilibrate to assay temperature (25° C.). • 4. Initiate HDAC reactions by adding diluted substrate (25 μl) to each well and mixing thoroughly. • 5. Allow HDAC reactions to proceed for desired length of time and then stop them by addition of Fluor de Lys™ Developer (50 μl). Incubate plate at room temperature (25° C.) for 10-15 min. • 6. Read samples in a microtiter-plate reading fluorimeter capable of excitation at a wavelength in the range 350-380 nm and detection of emitted light in the range 440-460 nm. Measurement of In Vivo Inhibition of HDAC Subtype Activity: […]

Hut-78 = experiment: Cell proliferation (MTS), Hut-78; type: cell-based; conditions: Homo sapiens, HuT78, 72 hours
Procedure: (§2) Measurement of In Vivo Cell Proliferation:
(§3) Tumor cells were trypsinized and plated into 96-well plates at 3,000 per well and incubated in complete medium with 10% FBS for 24 hours. Compounds were added over a final concentration range of 100 μmol/L to 100 nmol/L in 0.1% DMSO and incubated for 72 hours in complete medium. The effects on proliferation were determined by addition of MTS reagent (Promega) according to the instruction, incubation for 2 hours at 37° C. in CO2 incubator, and record the absorbance at 490 nm using an ELISA plate reader.

HeLa = experiment: Cell proliferation (MTS), HeLa; type: cell-based; conditions: Homo sapiens, 72 hours
Procedure: as §2, §3

A549 = experiment: Cell proliferation (MTS), A549; type: cell-based; conditions: Homo sapiens, 72 hours
Procedure: as §2, §3

HL60 = experiment: Cell proliferation (MTS), HL60; type: cell-based; conditions: Homo sapiens, HL-60, 72 hours
Procedure: as §2, §3

| SMILES | activation at 10 µM (HDAC3) | % of SAHA Response for HDAC Class I at 10 μM (P21 reporter gene) (HDAC Class I) | activation at 10 µM (HDAC7) | % of SAHA Response for HDAC4/5 at 10 μM (MEF2 reporter gene) (HDAC4/5) | % of Inhibition on total HDAC enzyme at 30 μM (total HDAC enzyme) | GI50 (Hut-78) | GI50 (HeLa) | GI50 (A549) | GI50 (HL60) | % of SAHA Response for HDAC3 at 10 μM (gdf11 reporter gene) (HDAC3; 10 μM, relative to SAHA, HeLa cells, 24 hours) | % of SAHA Response for HDAC7 at 10 μM (Nur77 reporter gene) (HDAC7) |
| --- | --- | --- | --- | --- | --- | --- | --- | --- | --- | --- | --- |
| Nc1ccccc1NC(=O)CCCCNC(=O)C=C1c2ccccc2-c2ccccc21 [Example 7, 5-(2-(9H-fluoren-9-ylidene)acetamido)-N-(2-aminophenyl)pentanamide] | 36% | 49% | 19% | 31% | 42% | – | – | – | – | – | – |
| Nc1cc(F)ccc1NC(=O)CCCCNC(=O)C=C1c2ccccc2-c2ccccc21 [Example 8, 5-(2-(9H-fluoren-9-ylidene)acetamido)-N-(2-amino-4-fluorophenyl)pentanamide] | 10% | 16% | 7% | 30% | 31.7% | – | – | – | – | – | – |
| O=C(C=C1c2ccccc2-c2ccccc21)NCCCCCC(=O)NO [Example 11, 6-(2-(9H-fluoren-9-ylidene)acetamido)-N-hydroxyhexanamide] | – | 77% | – | – | 99% | < 0.1 µM | 0.52 µM | 2.34 µM | < 0.1 µM | – | – |
| Nc1cc(Cl)ccc1NC(=O)CCCCCNC(=O)C=C1c2ccccc2-c2ccccc21 [Example 14, 6-(2-(9H-fluoren-9-ylidene)acetamido)-N-(2-amino-4-chlorophenyl)hexanamide] | 6% | 13% | 4% | 9% | – | – | – | – | – | – | – |
| Cc1ccc(NC(=O)CCCCCNC(=O)C=C2c3ccccc3-c3ccccc32)c(N)c1 [Example 15, 6-(2-(9H-fluoren-9-ylidene)acetamido)-N-(2-amino-4-methylphenyl)hexanamide] | 14% | 21% | 4% | 15% | 42.4% | – | – | – | – | – | – |
| COc1ccc(NC(=O)CCCCCNC(=O)C=C2c3ccccc3-c3ccccc32)c(N)c1 [Example 16, 6-(2-(9H-fluoren-9-ylidene)acetamido)-N-(2-amino-4-methoxyphenyl)hexanamide] | 12% | 21% | 10% | 27% | 29.2% | – | – | – | – | – | – |
| Nc1cc(C(F)(F)F)ccc1NC(=O)CCCCCNC(=O)C=C1c2ccccc2-c2ccccc21 [Example 17, 6-(2-(9H-fluoren-9-ylidene)acetamido)-N-(2-amino-4-trifluoromethylphenyl)hexanamide] | 7% | 12% | 7% | 21% | 24.1% | – | – | – | – | – | – |
| O=C(C=C1c2ccccc2-c2ccccc21)NCCCCCCCC(=O)NO [Example 26, 8-(2-(9H-fluoren-9-ylidene)acetamido)-N-hydroxyoctanamide] | 70% | 61% | 89% | 87% | 99.3% | – | – | – | – | – | – |
| Nc1cc(F)ccc1NC(=O)CCCCCCCNC(=O)C=C1c2ccccc2-c2ccccc21 [Example 27, 8-(2-(9H-fluoren-9-ylidene)acetamido)-N-(2-amino-4-fluorophenyl)octanamide] | 12% | 18% | 7% | 16% | 42.3% | – | – | – | – | – | – |
| Nc1ccccc1NC(=O)CCCCCCCNC(=O)C=C1c2ccccc2-c2ccccc21 [Example 28, 8-(2-(9H-fluoren-9-ylidene)acetamido)-N-(2-aminophenyl)octanamide] | 33% | 62% | 20% | 38% | 48% | – | – | – | – | – | – |
| O=C(CCCCCCC(=O)Nc1ccccc1)NO [SAHA, suberoylanilide hydroxamic acid, reference compound] | – | 100% | – | 100% | – | – | – | – | – | 100% | 100% |
